From publication PMC4077696 (PLoS Biology, 2014)
Where a name gives a salt, the structure may show the parent alone.

What was measured:
[1] = system: CC(C)C[C@H](NC(=O)[C@@H](NC(=O)[C@H](CCCNC(=N)N)NC(=O)[C@H](CCCCN)NC(=O)[C@H](CC(N)=O)NC(=O)[C@H](CCCNC(=N)N)NC(=O)c1ccc(N=Nc2ccc(N(C)C)cc2)cc1)[C@@H](C)O)C(=O)N[C@@H](C)C(=O)N[C@@H](CCC(N)=O)C(=O)N[C@@H](CCCCN)C(=O)N[C@@H](CCC(N)=O)C(=O)N[C@@H](CCC(=O)NCCNc1cccc2c(S(=O)(=O)O)cccc12)C(N)=O; experiment: PEXEL cleavage assay with immunopurified PvPMVHA and fluorogenic KAHRP PEXEL peptide; format: biochemical, Plasmodium vivax; conditions: other: Michaelis–Menten, 2 h; pH 6.4; 37.0 °C
Protocol: (§5) To investigate PvPMVHA activity, we affinity purified it, as well as the PfPMVHA control, using anti-HA agarose, as previously described [13],[18].
(§6) PMV-agarose was prepared by adding α-HA-agarose (Sapphire Bioscience) to parasite lysates, prepared by sonication in 1% Triton X-100/PBS, for 1 h before extensive washing in same [12],[13]. […] Samples were excited at 340 nm and fluorescence emission measured at 492 nm using an Envision fluorescence plate reader (Perkin-Elmer) heated to 37°C for 150 min. Samples were shaken between measurements.

[2] = system: CC(C)C[C@H](NC(=O)[C@@H](NC(=O)[C@H](CCCNC(=N)N)NC(=O)[C@H](CCCCN)NC(=O)[C@H](CC(N)=O)NC(=O)[C@H](CCCNC(=N)N)NC(=O)c1ccc(N=Nc2ccc(N(C)C)cc2)cc1)[C@@H](C)O)C(=O)N[C@@H](C)C(=O)N[C@@H](CCC(N)=O)C(=O)N[C@@H](CCCCN)C(=O)N[C@@H](CCC(N)=O)C(=O)N[C@@H](CCC(=O)NCCNc1cccc2c(S(=O)(=O)O)cccc12)C(N)=O; experiment: PEXEL cleavage assay with immunopurified PfPMVHA and fluorogenic KAHRP PEXEL peptide; format: biochemical, Plasmodium falciparum; conditions: other: Michaelis–Menten, 2 h; pH 6.4; 37.0 °C
Protocol: (§1) To investigate PvPMVHA activity, we affinity purified it, as well as the PfPMVHA control, using anti-HA agarose, as previously described,[18]. […] The proteins were incubated with a fluorogenic peptide of nine amino acids that contained the PEXEL sequence from knob-associated histidine-rich protein (KAHRP), and efficient processing was observed by both enzymes (Figure 1E). Cleavage of KAHRP by PfPMVHA was previously shown to occur after Leu (RTL↓) by mass spectrometry, and this position was also confirmed for PvPMVHA (Figure S2B–E). […] In contrast, no processing was observed when the PEXEL Arg and Leu residues were mutated to Ala (ATAAQ), consistent with the substrate specificity of PfPMV (Figure 1E). To verify that processing was due to HA-tagged PMV rather than other co-precipitated proteases, we expressed in P. falciparum a mutant of PvPMVHA or PfPMVHA [13], where one or both catalytic Asp residues were mutated to Ala (see Figure 1A,B). Following affinity purification, the mutant enzymes were incubated with KAHRP PEXEL peptides, but no processing was observed (Figure 1E; blue, white), confirming that the PEXEL-dependent cleavage activity observed for each protease was attributable only to HA-tagged PMV.
(§2) Each compound was incubated with PfPMVHA in the presence of KAHRP PEXEL peptides.
(§3) PMV-agarose was prepared by adding α-HA-agarose (Sapphire Bioscience) to parasite lysates, prepared by sonication in 1% Triton X-100/PBS, for 1 h before extensive washing in same,[13]. PEXEL cleavage assays (20 µl total volume) consisted of 0.2 µl PMV-agarose in digest buffer (25 mM Tris, 25 mM MES, pH 6.4) with 1.5 µM FRET peptide substrate (DABCYL-[…]-E-EDANS, DABCYL-[…]-E-EDANS, LifeTein; DABCYL-[…]-E-EDANS, DABCYL-[…]-E-EDANS; Mimotopes) ± inhibitor. Samples were excited at 340 nm and fluorescence emission measured at 492 nm using an Envision fluorescence plate reader (Perkin-Elmer) heated to 37°C for 150 min. Samples were shaken between measurements. For determination of the peptide cleavage position by PvPMVHA, the fluorogenic peptide (DABCYL-[…]-E-EDANS), representing the wild-type KAHRP PEXEL sequence, was incubated with and without PvPMVHA at 37°C for 48 h. Products of the incubation were detected by a molecular formula algorithm using an Agilent 6200 TOF/6500 series mass spectrometer.

[3] = system: P. falciparum protein translation; experiment: Global protein synthesis by radiolabeling parasite proteins after drug treatment; format: cell-based, Plasmodium falciparum; conditions: for Global protein synthesis after 23 h treatment of rings: 15 µM or 50>15 µM, BFA 5 µg/ml; for Global protein synthesis after 5 h treatment of trophozoites: 15 or 50 µM, BFA 10 µg/ml, 15 min labeling
Protocol: To gain further insight into the effects of 916, 024, and 025 on parasites, we assessed global protein synthesis following drug treatment by radiolabeling parasite proteins. Treatment of trophozoites with inhibitor for 5 h prior to radiolabeling had no detectable effect on translation, even at 50 µM concentrations (Figure S4A), indicating the compounds are not direct inhibitors of the translation machinery. We next assessed protein synthesis following 23 h of drug treatment of ring stage parasites (aged 1–3 h old at the initiation of treatment). […] Indeed, Giemsa smears following treatment identified a small proportion of pyknotic parasites in the population (results not shown). […] It is possible that PMV inhibition by 916 treatment has a similar but weaker effect to BFA, in that it causes the accumulation of uncleaved PEXEL precursors in the ER, perturbing ER transport, and that this negatively affects translation by an ER stress response. An alternative possibility is that translation was decreased slightly as a result of parasites dying from 916-mediated impairment of erythrocyte remodeling. Either way, the profile for 916 was different to that seen for 024 and 025, even at 50 µM, indicating the latter analogs likely kill parasites via a different mechanism to 916.
Whole parasite proteins were radiolabeled by culturing magnet-purified trophozoites (wild-type 3D7 or expressing PfEMP3-GFP) in Met/Cys-free medium for 30 min at 37°C before addition of 800 µCi/ml ^35S-Met/Cys (Perkin/Elmer) to the medium for the indicated times. Pellets were snap frozen in ethanol/dry ice bath and stored at −80°C. For radiolabeling in the presence of PMV inhibitor, parasites were treated with 20 µM WEHI-916 for 5 h before labeling commenced. For pulse-chases, proteins were radiolabeled in the presence or absence of inhibitor, as above, before further culture in radiolabel-free, inhibitor-free complete medium for the indicated times at 37°C before snap freezing. Frozen samples were either solubilized in Laemmli's buffer (Figure S4) or solubilized in 1% Triton X-100/PBS with protease inhibitor cocktail (Roche) and PfEMP3-GFP species immunopurified with α-GFP agarose (MBL) at 4°C for 2 h (Figures 3 and S3), and proteins were resolved by SDS-PAGE, visualized by autoradiography (7-d exposures), and quantified using a GS-800 Calibrated Densitometer (Bio-Rad).

[4] = molecular target: PfPMV (Plasmodium falciparum, UniProt Q8I6Z5); experiment: PEXEL cleavage assay with immunopurified PfPMVHA and fluorogenic KAHRP PEXEL peptide; format: biochemical; conditions: IC50 PfPMV, PfPMVHA
Sequence of PfPMV (Q8I6Z5 34-590): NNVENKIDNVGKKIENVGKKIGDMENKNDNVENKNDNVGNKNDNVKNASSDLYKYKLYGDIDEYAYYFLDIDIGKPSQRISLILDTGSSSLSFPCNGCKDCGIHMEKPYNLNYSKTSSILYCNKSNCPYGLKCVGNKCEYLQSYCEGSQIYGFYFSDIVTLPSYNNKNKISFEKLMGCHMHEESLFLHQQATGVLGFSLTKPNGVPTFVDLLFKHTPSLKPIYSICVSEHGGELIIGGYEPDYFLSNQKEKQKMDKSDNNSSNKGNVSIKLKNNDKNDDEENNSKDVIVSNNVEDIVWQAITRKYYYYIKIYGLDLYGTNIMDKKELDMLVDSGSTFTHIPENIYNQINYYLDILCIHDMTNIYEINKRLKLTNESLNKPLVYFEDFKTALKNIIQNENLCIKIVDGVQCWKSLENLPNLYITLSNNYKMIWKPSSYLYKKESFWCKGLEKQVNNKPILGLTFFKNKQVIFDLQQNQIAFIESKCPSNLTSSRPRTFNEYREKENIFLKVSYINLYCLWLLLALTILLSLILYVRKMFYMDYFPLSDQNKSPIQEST
Protocol: as §1, §2, §3

[5] = system: signal peptidase; experiment: Signal peptide cleavage of SERA5s-GFP in parasites by immunoblot; format: cell-based, Plasmodium falciparum
Protocol: This protein contains a signal peptide but lacks a PEXEL and is efficiently secreted to the parasitophorous vacuole (Figure S3B).
(§4) Trophozoites (30–34 h) expressing PfEMP3-GFP, KAHRP-GFP, or SERA5s-GFP were magnet-purified (Miltenyi Biotech), incubated with inhibitors in 400 µl total volume at 37°C for 1–5 h, treated with 0.09% saponin containing inhibitor, and washed pellets were solubilized in Laemmli's buffer, boiled for 3 min, and frozen at −20°C. Proteins were separated by SDS-PAGE, transferred to nitrocellulose and blocked in 10% skim milk/PBS-T, and probed with rat α-HA (Roche 3F10; 1∶1,000), mouse α-GFP (Roche; 1∶1,000), rabbit α-Aldolase (1∶1,000), rabbit α-HSP70 (1∶4,000), rabbit α-PfPMV (1∶1,000), or rabbit α-Hyp8 (1∶500) primary antibodies followed by horseradish peroxidase-conjugated secondary antibodies (Silenius) and detected by enhanced chemiluminescence (Amersham).

[6] = system: HEpG2 cells; experiment: Toxicity against human HEpG2 cells; format: cell-based; conditions: toxicity against human cell line
[7] = molecular target: PMV in P. falciparum–infected erythrocytes (Plasmodium falciparum, UniProt Q8I6Z5); experiment: PEXEL processing of GFP reporters in parasites by immunoblot; format: cell-based; conditions: 5 h treatment, immunoblot
Sequence of PMV in P. falciparum–infected erythrocytes (Q8I6Z5 whole entry, the tested form may be a part): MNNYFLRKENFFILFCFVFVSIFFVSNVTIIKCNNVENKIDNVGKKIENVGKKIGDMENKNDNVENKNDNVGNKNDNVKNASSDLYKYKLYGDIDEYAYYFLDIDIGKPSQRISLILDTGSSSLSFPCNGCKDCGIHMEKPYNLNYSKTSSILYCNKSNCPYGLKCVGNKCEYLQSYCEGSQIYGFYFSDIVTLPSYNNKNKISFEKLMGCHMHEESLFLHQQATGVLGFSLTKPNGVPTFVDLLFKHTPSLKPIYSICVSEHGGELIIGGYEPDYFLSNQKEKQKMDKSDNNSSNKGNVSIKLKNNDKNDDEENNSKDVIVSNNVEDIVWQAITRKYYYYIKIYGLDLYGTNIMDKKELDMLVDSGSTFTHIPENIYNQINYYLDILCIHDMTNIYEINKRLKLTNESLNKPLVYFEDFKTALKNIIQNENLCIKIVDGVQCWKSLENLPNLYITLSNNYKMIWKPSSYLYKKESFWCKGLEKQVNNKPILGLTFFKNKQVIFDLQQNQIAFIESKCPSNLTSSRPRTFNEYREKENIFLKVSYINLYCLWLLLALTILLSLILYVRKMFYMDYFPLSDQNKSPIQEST
Protocol: To assess whether 916 could inhibit PMV in P. falciparum–infected erythrocytes, parasites expressing the PEXEL protein P. falciparum erythrocyte membrane protein 3 (PfEMP3) fused to green fluorescent protein (GFP) were treated with increasing concentrations of inhibitor, and PEXEL processing was evaluated by immunoblot. […] A GFP-only band, representing degraded chimera in the food vacuole, was also observed at ∼26 kDa (Figure 3A).
as §4

[8] = molecular target: PvPMV (Plasmodium vivax, UniProt A5K302); experiment: PEXEL cleavage assay with immunopurified PvPMVHA and fluorogenic KAHRP PEXEL peptide; format: biochemical
Sequence of PvPMV (A5K302 35-536): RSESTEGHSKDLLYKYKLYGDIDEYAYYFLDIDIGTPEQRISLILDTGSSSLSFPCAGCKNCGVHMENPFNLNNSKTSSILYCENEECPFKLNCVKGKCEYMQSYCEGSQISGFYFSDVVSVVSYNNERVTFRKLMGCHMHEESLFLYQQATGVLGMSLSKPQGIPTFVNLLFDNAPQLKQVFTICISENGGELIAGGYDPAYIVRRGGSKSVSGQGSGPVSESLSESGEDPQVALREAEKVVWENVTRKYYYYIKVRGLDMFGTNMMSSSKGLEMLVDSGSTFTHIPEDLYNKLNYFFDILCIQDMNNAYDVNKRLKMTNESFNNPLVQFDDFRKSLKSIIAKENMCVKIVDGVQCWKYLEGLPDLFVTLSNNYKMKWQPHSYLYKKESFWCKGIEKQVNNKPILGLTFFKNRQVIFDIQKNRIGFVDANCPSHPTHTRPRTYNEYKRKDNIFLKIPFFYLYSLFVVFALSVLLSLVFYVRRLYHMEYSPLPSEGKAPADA
Protocol: as §5, §6

[9] = system: Human Foreskin Fibroblasts (HFF); experiment: Toxicity against Human Foreskin Fibroblasts; format: cell-based; conditions: Fibroblast

## PvPMV (Plasmodium vivax Sal-1)
[1]
  Km: 9.7 (±3.0) µM

## PfPMV (Plasmodium falciparum 3D7)
[2]
  Km: 11.7 (±1.8) µM

## C[C@H]1CCC/C=C/[C@@H]2C[C@H](O)C[C@H]2[C@H](O)/C=C/C(=O)O1 [Brefeldin A, reference compound]
[3]
  Global protein synthesis after 23 h treatment of rings: severely impaired translation
  Global protein synthesis after 5 h treatment of trophozoites: no defect in global protein synthesis
[3]; listed as BFA
  Global protein synthesis after 23 h treatment of rings: severely reduced translation

## CC(C)C[C@H](NC(=O)[C@@H](NC(=O)[C@H](CCCCN)NS(=O)(=O)Cc1ccccc1)C(C)C)[C@@H](O)CC(=O)NCCc1ccccc1 [compound 024, PhCH2SO2-Lys(NH2)-Val-Sta-NH(CH2)2Ph .TFA]
[4]
  IC50: > 100 µM
[5]; 20 µM for 5 h
  Signal peptide cleavage of SERA5s-GFP, in words: no defect
[5]; concentrations up to 50 µM
  Effect on PMV or signal peptidase activity in parasites, in words: no affect
[6]
  IC50: > 100 µM
[7]; 20 and 50 µM
  PEXEL processing of KAHRP-GFP in parasites, in words: no effect
[7]; up to 50 µM
  PEXEL processing of PfEMP3-GFP in parasites, in words: no effect
[3]
  Global protein synthesis after 23 h treatment of rings: no defect in global protein synthesis
  Global protein synthesis after 5 h treatment of trophozoites: no defect in global protein synthesis
[8]
  Activity against PvPMVHA, in words: weak activity
  IC50: > 100 µM
[9]
  IC50: > 100 µM
